Reference: patent US20200171051A1, “METHODS FOR TREATING RENAL INJURY BY […] UPREGULATING P21” (RENIBUS THERAPEUTICS, INC., priority 2018, published 2020)

Assays:
[1] = in vivo; cited from earlier work
[2] = relative to cortisol = 1; cited from earlier work
[3] = tested on: renal cortical p21; assay: Glycerol AKI model: renal cortical p21 mRNA (RT-PCR, factored by GAPDH) and p21 protein (ELISA); assay type: in vivo, male CD-1 mice
Method: (§1) The present inventors conducted studies to better understand the factors that drive renal p21 expression during AKI. All experiments were performed using male CD-1 mice (35-40 grams, Charles River Laboratories, Wilmington, Del.) maintained under routine vivarium conditions with free food and water access. The AKI models were approved by the institution's Animal Care and Utilization Committee). All surgical procedures were conducted under deep pentobarbital anesthesia (40-50 mg/Kg IP).
Mice were briefly anesthetized with isoflurane, and then subjected to intramuscular glycerol injection (administered in equally divided doses into each hind limb). The glycerol dose ware varied (6, 6.5, 7, 7.5, 8, 8.5, 9 ml/Kg; n˜2-3 per dose) in order to produce variable degrees of renal injury. At 4 hrs post glycerol injection, a tail vein tail vein blood sample (˜25 μl) was obtained, and at 18 hrs, the mice were deeply anesthetized with pentobarbital. The abdominal cavity was opened through a midline abdominal incision, a terminal vena cava blood sample was obtained, the kidneys were removed, iced, and renal cortical samples were cut and extracted for both protein and total RNA (RNeasy Mini+; Qiagen; Germantown, Md.). A terminal urine sample was collected from the urinary bladder. Plasma samples were assayed for blood urea nitrogen (BUN) and creatinine (Cr). Johnson A C, Zager R A. Plasma and urinary p21: potential biomarkers of AKI and renal aging. Am J Physiol 2018; Aug. 1. doi: 10.1152/ajprenal.00328.2018. [Epub ahead of print]. Renal cortical, plasma, and urinary p21 concentrations were determined with a ‘sandwich’ ELISA which employs two distinct monoclonal antibodies (capture; detection) directed against two different p21 epitopes, conferring p21 specificity; (#2120721; Abcam, Cambridge, Mass.). Renal cortical p21 mRNA levels were determined by RT-PCR, factored by GAPDH. Ten normal mice provided control plasma, urine, and tissue values for comparisons.
To assess renal cortical changes at an earlier time point than that noted above (18 hrs post glycerol injection), an additional 5 mice were subjected to glycerol injection (8.5 ml/Kg) and 4 hrs later, renal cortical protein/RNA samples were obtained for use in the above noted assays. The results were contrasted to those observed in 5 normal mice.
Pifithrin-α is a stable, water soluble, p53 inhibitor which blocks activation of p53 responsive genes. Dagher P C, Mai E M, Hato T, Lee S Y, Anderson M D Karozos S C Mang H E, Knipe N L, Plotkin Z, Sutton T A: The p53 inhibitor pifithrin can stimulate fibrosis in a rat model of ischemic acute kidney injury. Am J Physiol Renal Physiol 302: F284-F291, 2012; Komarov P G, Komarova E A, Kondratov R V, Christov-Tselkov K, Coon J S, Chernov M V et al. A chemical inhibitor of p53 that protects mice from the side effects of cancer therapy. Science 285: 1733-1737, 1999. As such, it has been used to differentiate p53-dependent vs. p53-independent pathways. To further explore the potential role of p53 on p21 gene activation, 3 mice were injected IP with 10 mg/Kg pifithrin-α (10% DMSO in saline; EMD Millipore #506154; Burlington, Mass.). Three additional mice received vehicle injection. Immediately thereafter the mice were injected with […] glycerol. Four hrs post glycerol injection, renal cortical tissues were analyzed for p21 and p53 mRNAs.
Inflammation can induce p21 gene activation via the inflammatory cascade (1, 2). Basile J R, Eichten A, Zacny V, Münger K. NF-kappaB-mediated induction of p21(Cip1/Waf1) by tumor necrosis factor alpha induces growth arrest and cytoprotection in normal human keratinocytes. Mol Cancer Res. 2003; 4: 262-270; Bellido T, O'Brien C A, Roberson P K, Manolagas S C: Transcriptional Activation of the p21WAF1,CIP1,SDI1 Gene by Interleukin-6 Type Cytokines. J Biol Chem 1998; 273:21137-21144. […]

[4] = tested on: renal cortical p21; assay: Normal mice (no renal injury): renal cortical p21 protein and mRNA; assay type: in vivo, male CD-1 mice
Method: The present inventors conducted studies to better understand the factors that drive renal p21 expression during AKI. All experiments were performed using male CD-1 mice (35-40 grams, Charles River Laboratories, Wilmington, Del.) maintained under routine vivarium conditions with free food and water access. The AKI models were approved by the institution's Animal Care and Utilization Committee). All surgical procedures were conducted under deep pentobarbital anesthesia (40-50 mg/Kg IP). Mice were briefly anesthetized with isoflurane, and then subjected to intramuscular glycerol injection (administered in equally divided doses into each hind limb). […] At 4 hrs post glycerol injection, a tail vein tail vein blood sample (˜25 μl) was obtained, and at 18 hrs, the mice were deeply anesthetized with pentobarbital. The abdominal cavity was opened through a midline abdominal incision, a terminal vena cava blood sample was obtained, the kidneys were removed, iced, and renal cortical samples were cut and extracted for both protein and total RNA (RNeasy Mini+; Qiagen; Germantown, Md.). A terminal urine sample was collected from the urinary bladder. Plasma samples were assayed for blood urea nitrogen (BUN) and creatinine (Cr). Johnson A C, Zager R A. Plasma and urinary p21: potential biomarkers of AKI and renal aging. Am J Physiol 2018; […] [Epub ahead of print]. Renal cortical, plasma, and urinary p21 concentrations were determined with a ‘sandwich’ ELISA which employs two distinct monoclonal antibodies (capture; detection) directed against two different p21 epitopes, conferring p21 specificity; (#2120721; Abcam, Cambridge, Mass.). Renal cortical p21 mRNA levels were determined by RT-PCR, factored by GAPDH. Ten normal mice provided control plasma, urine, and tissue values for comparisons. To determine the impact of DXM on renal p21 expression in the absence of renal injury, 5 mice were injected with DXM as above, and 4 hrs later p21 protein/mRNA levels were measured and compared to normal values. Given an unexpected finding that corticosteroid injection increased, rather than suppressed, p21 expression, and given that endogenous cortisol levels were markedly elevated post-glycerol injection, we questioned whether glucocorticoid receptor (GCR) blockade would decrease p21 expression. […] Four hrs later, the kidneys were removed and renal cortices were analyzed for p21 mRNA and protein levels. Four mice, treated with mifepristone in the absence of glycerol injection, served to evaluate its effects in the absence of glycerol injection.

[5] = tested on: renal cortical p53 mRNA; assay: Glycerol AKI model: renal cortical p53 mRNA; assay type: in vivo, male CD-1 mice; conditions: 4 hr post glycerol + pifithrin-α 10 mg/Kg IP; mean ± SEM; glycerol alone 0.75±0.02; NS
Method: as §1
Mice were briefly anesthetized with isoflurane, and then subjected to intramuscular glycerol injection (administered in equally divided doses into each hind limb). The glycerol dose ware varied (6, 6.5, 7, 7.5, 8, 8.5, 9 ml/Kg; n˜2-3 per dose) in order to produce variable degrees of renal injury. […] Renal cortical, plasma, and urinary p21 concentrations were determined with a ‘sandwich’ ELISA which employs two distinct monoclonal antibodies (capture; detection) directed against two different p21 epitopes, conferring p21 specificity; (#2120721; Abcam, Cambridge, Mass.). Renal cortical p21 mRNA levels were determined by RT-PCR, factored by GAPDH. […]
Pifithrin-α is a stable, water soluble, p53 inhibitor which blocks activation of p53 responsive genes. […] Four hrs post glycerol injection, renal cortical tissues were analyzed for p21 and p53 mRNAs. […]

[6] = 4 hr post glycerol kidneys, DXM 250 μg IP 30 min before glycerol 8.5 ml/Kg
[7] = normal mice, within 4 hrs of DXM injection (250 μg IP)
[8] = glycerol treated mice, 4 hrs, MFP 30 mg/Kg, in words
[9] = control mice, 4 hrs post MFP 30 mg/Kg, in words

Structure (SMILES): C[C@]12CCC(=O)C=C1CC[C@@H]1[C@@H]2[C@@H](O)C[C@@]2(C)[C@H]1CC[C@]2(O)C(=O)CO [Cortisol]
- Terminal half-life [1]: 8 h
- Glucocorticoid potency [2]: 1
- effect on 4 hr post glycerol p21 mRNA levels ([3]; cortisol 1 mg/Kg IP 30 min before glycerol 8.5 ml/Kg, in words): to the same degree as did DXM injection

Structure (SMILES): C[C@]12CCC(=O)C=C1CC[C@@H]1[C@@H]2C(=O)C[C@@]2(C)[C@H]1CC[C@]2(O)C(=O)CO [Cortisone]
- Glucocorticoid potency [2]: 0.8

Structure (SMILES): C[C@@H]1C[C@H]2[C@@H]3CCC4=CC(=O)C=C[C@]4(C)[C@@]3(F)[C@@H](O)C[C@]2(C)[C@@]1(O)C(=O)CO [Dexamethasone]
- increase in p21 mRNA [3, 6]: ~3 fold
- increase in p21 protein [3, 6]: ~3 fold
- increase in renal cortical p21 mRNA [4, 7]: 15 ×
- increase in renal cortical p21 protein [4, 7]: 10 ×

Structure (SMILES): C[C@H]1C[C@@H]2[C@H]([C@@H](O)C[C@@]3(C)[C@H]2CC[C@]3(O)C(=O)CO)[C@@]2(C)C=CC(=O)C=C12 [Methylprednisolone]
- Terminal half-life [1]: 18 to 40 h

Structure (SMILES): CC#C[C@]1(O)CC[C@H]2[C@@H]3CCC4=CC(=O)CCC4=C3[C@@H](c3ccc(N(C)C)cc3)C[C@@]21C [Mifepristone]
- effect on p21 protein levels [3, 8]: normalized
- effect on post glycerol p21 mRNA levels [3, 8]: modest reduction
- effect on p21 mRNA values [4, 9]: no significant decrease
- effect on p21 protein values [4, 9]: no significant decrease

Structure (SMILES): C[C@]12C=CC(=O)C=C1CC[C@@H]1[C@@H]2[C@@H](O)C[C@@]2(C)[C@H]1CC[C@]2(O)C(=O)CO [Prednisolone]
- Terminal half-life [1]: 16 to 36 h
- Glucocorticoid potency [2]: 4

Structure (SMILES): C[C@]12C=CC(=O)C=C1CC[C@@H]1[C@@H]2C(=O)C[C@@]2(C)[C@H]1CC[C@]2(O)C(=O)CO [Prednisone]
- Terminal half-life [1]: 16 to 36 h

Structure (SMILES): C[C@]12C=CC(=O)C=C1CC[C@H]1[C@@H]3C[C@@H](O)[C@](O)(C(=O)CO)[C@@]3(C)C[C@H](O)[C@@]12F [Triamcinolone]
- Terminal half-life [1]: 12 to 36 h
- Glucocorticoid potency [2]: 5

Structure (SMILES): Cc1ccc(C(=O)Cn2c3c(sc2=N)CCCC3)cc1 [pifithrin-α, Pifithrin-α]
- renal cortical p21 mRNA ([3]; 4 hr post glycerol + pifithrin-α 10 mg/Kg IP, mean ± SEM, controls 0.34±0.1, glycerol alone 1.43±0.11): 1.71±0.08
- renal cortical p53 mRNA [5]: 0.7±0.03
